{
  "source": "patent US6203822A",
  "about": "“Gallium-containing compounds for the treatment of infections caused by intracellular pathogens and pathogens causing chronic pulmonary infection” (priority 1996, dated 2001)",
  "key": {"[1]": {"system": "M. tuberculosis strain H37Ra", "assay_type": "cell-based"}, "[2]": {"details": "known from literature; cited from earlier work"}, "bone cell": {"system": "bone cell", "details": "cancer patients, large scale clinical studies (Todd et al.); cited from earlier work"}, "[3]": {"system": "macrophage monolayers (MDMs)", "assay": "Gallium toxicity in uninfected MDM monolayers", "assay_type": "cell-based, human", "details": "in most cases, equivalent to untreated controls", "method": "To test the potential toxicity of gallium nitrate on the standard macrophage monolayers (MDMs) used in the assays described in this invention, uninfected MDM monolayers were incubated with various concentrations of gallium nitrate in the range used in the studies described in Examples 2 and 3.\nThere was no immediate difference in monolayer density between MDM monolayers with and without gallium nitrate treatment up to a gallium concentration of 2 mM. Results were based on counting napthol blue macrophage stained nuclei from the monolayer. These numbers directly correlate with the number of cells present. In most cases the integrity of the MDM monolayer in the presence of gallium was maintained for up to 37 days, equivalent to untreated, uninfected control cultures."}, "[4]": {"system": "M. tuberculosis in human alveolar macrophages", "assay": "M. tuberculosis in human alveolar macrophages, gallium nitrate with or without anti-tuberculous antibiotics", "assay_type": "cell-based", "details": "full doses of first line antibiotics, by 24 h", "method": "The gallium-containing compounds can also be tested for their ability to inhibit intracellular pathogens in tissue culture assays. In general, in these assays, the macrophages are placed in culture and incubated with the intracellular pathogen at an approximate cell to pathogen ratio of preferably at least 1:1 to about 1:5 cells:pathogen. Exemplary culture conditions are provided in the assays detailed in the Examples. For assays assessing M. tuberculosis infection, freshly adherent monocytes, 12 day-old adherent MDMs, or freshly adherent alveolar macrophages are incubated with M. tuberculosis, MAI or other intracellular bacteria at a ratio of about 1:1 to about 1:5 (phagocyte:bacterium). For M. tuberculosis or MAI, the bacteria are incubated with the phagocyte for 2 hr at 37° C. in RPMI/HEPES media with 2.5% serum or human serum albumin (serum-free). The cells are washed to remove non-adherent bacteria and monolayers are replated with RPMI containing 1% autologous serum (to maintain phagocyte viability but not to sustain extracellular growth of bacteria). Gallium-containing compounds, such as gallium nitrate, with, or without, other agents such as antibiotics, cytokines etc., are added about 24 hr. later and mycobacterial growth in cell lysates is then assessed over the next several days either by the radiometric BACTEC system or by colony-forming units on agarose plates. In each experiment, growth is assessed relative to control monolayers where no drug has been added.\nHuman alveolar macrophages were purified from healthy non-smoking adult volunteers and placed in monolayer culture. M. tuberculosis infected cells were treated with gallium nitrate as described in Example 2. Antituberculous antibiotics were added to wells alone or with gallium nitrate at 500 μM 24 h after M. tuberculosis infection. Antituberculous antibiotics tested included streptomycin (2.016 μg/ml), isoniazid (0.1 μg/ml), rifampin (2.0 μg/ml), and ethambutol (2.52 μg/ml) and the combination of antibiotics was denoted as SIRE. Antibiotics were obtained in lyophilized form from BACTEC. The antibiotics were reconstituted in sterile water per package instructions. With reference to FIG. 3, SIRE refers to combinations of streptomycin, isoniazid, rifampin and ethambutol while IR refers to combinations of Isoniazid and rifampin.\nInfected macrophages were cultured for 24 h, 48 h, or 120 h. Growth index readings of combined supernatants and cell lysates were measured in the BACTEC 460 TB system. […] Since these antibiotics have a number of unpleasant side effects that are reduced at reduced concentrations of the drugs, combined therapies that permit these antibiotics to be administered at lower doses when combined with gallium nitrate is significant and may help to promote better drug compliance in patients infected with M. tuberculosis."}, "[5]": {"system": "M. tuberculosis in macrophages", "assay_type": "cell-based"}, "[6]": {"system": "macrophage ferritin and transferrin receptors", "details": "Byrd, et al.; cited from earlier work"}},
  "note": "Read-outs that look alike come from different tables or passages of the source.",
  "data": [
    {"compound": "transferrin: control cultures were treated with transferrin alone; Human apotransferrin (Sigma Chemicals)", "values": [
      {"measurement": "bacterial growth inhibition, control culture", "setting": "[1]; transferrin alone", "value": "no inhibition in bacterial growth"}
    ]},
    {"compound": "[Ga]", "note": "[gallium]", "values": [
      {"measurement": "tissue accumulation", "setting": "[2]", "value": "accumulate in cells of mononuclear origin in the liver, kidney, spleen and lymphatic system"},
      {"measurement": "effect on bone cell morphology or viability", "setting": "bone cell", "value": "did not affect bone cell morphology or viability"},
      {"measurement": "time integrity of MDM monolayer maintained in presence of gallium", "setting": "[3]", "value": "up to 37 days"}
    ]},
    {"compound": "gallium transferrin: Human apotransferrin mixed 1:1 (by molar ratio) with gallium", "values": [
      {"measurement": "concentration of gallium with marked inhibition of growth", "setting": "[1]; growth index Day 10, broth culture, apotransferrin mixed 1:1 with gallium", "value": 75, "unit": "µM"}
    ]},
    {"compound": "CC[C@@H](CO)NCCN[C@@H](CC)CO", "note": "[ethambutol]", "values": [
      {"measurement": "growth inhibition by full doses of first line antibiotics", "setting": "[4]", "value": "quite potent"}
    ]},
    {"compound": "CO[C@H]1/C=C/O[C@@]2(C)Oc3c(C)c(O)c4c(O)c(c(/C=N/N5CCN(C)CC5)c(O)c4c3C2=O)NC(=O)/C(C)=C\\C=C\\[C@H](C)[C@H](O)[C@@H](C)[C@@H](O)[C@@H](C)[C@H](OC(C)=O)[C@@H]1C", "note": "[rifampin]", "values": [
      {"measurement": "growth inhibition by full doses of first line antibiotics", "setting": "[4]", "value": "quite potent"}
    ]},
    {"compound": "NNC(=O)c1ccncc1", "note": "[isoniazid]", "values": [
      {"measurement": "growth inhibition by full doses of first line antibiotics", "setting": "[4]", "value": "quite potent"}
    ]},
    {"compound": "[H]/N=C(/N)N[C@H]1[C@H](O)[C@@H](O)[C@H](O[C@@H]2O[C@@H](C)[C@](O)(C=O)[C@H]2O[C@@H]2O[C@@H](CO)[C@H](O)[C@@H](O)[C@@H]2NC)[C@@H](N/C(N)=N\\[H])[C@@H]1O", "note": "[streptomycin]", "values": [
      {"measurement": "growth inhibition by full doses of first line antibiotics", "setting": "[4]", "value": "quite potent"}
    ]},
    {"compound": "interferon-γ: Human interferon-γ (Genzyme, Cambridge, Mass.), cytokine", "values": [
      {"measurement": "augmentation of gallium nitrate growth inhibition", "setting": "[5]; IFN-γ in combination with 0 to about 400 μM gallium nitrate", "value": "at least 50%"},
      {"measurement": "augmentation of gallium nitrate growth inhibition", "setting": "[5]; interferon-γ various concentrations (0-1000U), gallium nitrate at 100 μM", "value": "≥ 50", "unit": "%"},
      {"measurement": "effect on expression of transferrin receptors", "setting": "[6]", "value": "down regulate expression of transferrin receptors"},
      {"measurement": "effect on macrophage ferritin levels", "setting": "[6]", "value": "down regulate macrophage ferritin levels"}
    ]}
  ]
}
